Source: US20220064214A1, “NOVEL PEPTIDES AND USES THEREOF” (CENNA BIOSCIENCES INC., priority 2019, published 2022)
Values joined by “and” are separate entries in the source; they are usually repeats but may differ in a detail not shown here. Identical values can stand only once. Marks after values point to notes of the source that are not given here. Ends that are not written are not given here.

Key:
Aβ40 = test: Efficacy in reducing Aβ40 in rat plasma (ELISA); type: in vivo; settings: 10 mg/kg SC; for reduction in Aβ40: rat plasma; for Percent Decrease in Aβ 40 in Rat Plasma: mean of 3 rats, negative = decrease
Protocol: (§1) Blood was collected through jugular vein cannulas, and the samples were collected into tubes with K2EDTA. After centrifuging at a temperature of 2 to 8° C. at 4,000×g for 5 minutes, the resulting plasma was split into equal aliquots, frozen, and stored at −60 to −80° C. One aliquot was for PK analysis and the other was for Aβ analysis (see Example 4).
Rats (n=3 per peptide) were administered with P8, 8M1D, or 8M2D (10 mg/kg) subcutaneously, and plasma were collected at 0, 6, 12, and 24 h after dosing and Aβ40 analysis was carried out by ELISA (Invitrogen).

Aβ = test: Reduction of Aβ in retinal cells differentiated from iPSC derived from Alzheimer's disease patients; type: cell-based
Excerpt: The accumulation of Aβ in the retina was studied in this example. Retinal cells were differentiated from induced pluripotent stem (iPSC) cells derived from Alzheimer's disease patients.

[1] = Delivery to brain in transgenic mice (brain concentrations); type: in vivo; settings: SC administration
Protocol: Critical to the development of any therapeutic for diseases like AD is the requirement that it can be delivered to the brain. Delivery to brain and efficacy of P8 and 8M2D in reducing Aß was analyzed in the transgenic mice described in Section 6.3 above. […]

[2] = Pharmacokinetics study in rats, plasma; type: in vivo; settings: rat; for plasma concentration: individual rats
Protocol: (§2) An in-vivo study was carried out in rats to determine the pharmacokinetics (PK) of peptides P8, 8M1D and 8M2D in plasma and CSF. Each peptide was assessed through two dosage routes, intravenous (IV) and subcutaneous (SC). Three rats were assigned to each dose group with each peptide. Total of twelve rats per peptide were used.
as §1

[3] = Pharmacokinetics study in rats, CSF; type: in vivo; set-up: CSF concentration, Mean IV / CSF concentration, Mean SC: unit not given here; settings: rat; for CSF concentration, Mean IV: 10 mg/kg IV; for CSF concentration, Mean SC: 10 mg/kg SC
Protocol: as §2
CSF collection was performed by first anesthetizing animals at specified time points (see Table 5) with a mixture of 80 mg/kg ketamine and 8 mg/kg xylazine. The depth of anesthesia was monitored by toe pinches. CSF was collected via the cisterna magna (˜0.05 mL), and it was split into equal aliquots, frozen, and stored at −60 to −80° C.

time after dosing at which detectable in plasma ([2]; 10 mg/kg IV and SC): ≤ 2 h | plasma concentration ([2]; 10 mg/kg IV, 0 hr (pre-dose)): BQL | plasma concentration ([2]; 10 mg/kg IV, 0.167 hr, 10 mg/kg): 9,770 and 12,800 ^a and 11,800 ^a | plasma concentration ([2]; 10 mg/kg IV, 0.5 hr, 10 mg/kg, in ng/mL (unit assumed)): 2,340 and 2,080 and 2,710 | plasma concentration ([2]; 10 mg/kg IV, 1 hr, 10 mg/kg, in ng/mL (unit assumed)): 257 and 219 and 189 | plasma concentration ([2]; 10 mg/kg IV, 2 hr, 10 mg/kg, in ng/mL (unit assumed)): 26.3 and 22.7 and 18.9 | plasma concentration ([2]; 10 mg/kg IV, 4 hr, 10 mg/kg): 3.23 ^b and 3.18 ^b and 2.89 ^b | plasma concentration ([2]; 10 mg/kg IV, 6 hr, 10 mg/kg): 1.07 ^b and 0.794 ^b | plasma concentration ([2]; 10 mg/kg IV, 8 hr): BQL | plasma concentration ([2]; 10 mg/kg IV, 12 hr): BQL | plasma concentration ([2]; 10 mg/kg IV, 24 hr): BQL | plasma concentration ([2]; 10 mg/kg SC, 0 hr (pre-dose)): BQL | plasma concentration ([2]; 10 mg/kg SC, 0.167 hr, 10 mg/kg): 5,610 and 14,400 ^a and 11,900 ^a | plasma concentration ([2]; 10 mg/kg SC, 0.5 hr, 10 mg/kg, in ng/mL (unit assumed)): 3,030 and 7,010 and 7,250 | plasma concentration ([2]; 10 mg/kg SC, 1 hr, 10 mg/kg, in ng/mL (unit assumed)): 670 and 1,300 and 1,970 | plasma concentration ([2]; 10 mg/kg SC, 2 hr, 10 mg/kg, in ng/mL (unit assumed)): 105 and 191 and 245 | plasma concentration ([2]; 10 mg/kg SC, 4 hr, 10 mg/kg): 5.44 ^b and 9.41 ^b and 20.7 | plasma concentration ([2]; 10 mg/kg SC, 6 hr, 10 mg/kg): 1.18 ^b and 4.35 ^b and 9.33 ^b | plasma concentration ([2]; 10 mg/kg SC, 8 hr, 10 mg/kg): BQL and 1.32 ^b and 1.51 ^b | plasma concentration ([2]; 10 mg/kg SC, 12 hr, 10 mg/kg): BQL (2×) and 0.900 ^b | plasma concentration ([2]; 10 mg/kg SC, 24 hr): BQL | time after dosing at which detectable in CSF ([3]; 10 mg/kg IV and SC): ≤ 2 h | CSF concentration, Mean IV ([3]; 0 hr): 0 | CSF concentration, Mean IV ([3]; 0.5 hr): 42.4 | CSF concentration, Mean IV ([3]; 1 hr): 14.2 | CSF concentration, Mean IV ([3]; 2 hr): 4.89 | CSF concentration, Mean IV ([3]; 4 hr): 0 | CSF concentration, Mean IV ([3]; 8 hr): 0 | CSF concentration, Mean IV ([3]; 12 hr): 0 | CSF concentration, Mean IV ([3]; 24 hr): 0 | CSF concentration, Mean SC ([3]; 0 hr): 0 | CSF concentration, Mean SC ([3]; 0.5 hr): 79.4 | CSF concentration, Mean SC ([3]; 1 hr): 19.3 | CSF concentration, Mean SC ([3]; 2 hr): 23.3 | CSF concentration, Mean SC ([3]; 4 hr): 0 | CSF concentration, Mean SC ([3]; 8 hr): 0 | CSF concentration, Mean SC ([3]; 12 hr): 0 | CSF concentration, Mean SC ([3]; 24 hr): 0
Substance: DEEEDEEL-OH [P8, DEEEDEEL, reference compound]
reduction in Aβ40 (Aβ40; 12 hr post dosing): about 22% | reduction in Aβ40 (Aβ40; 24 h post dosing): about 13% | Percent Decrease in Aβ 40 in Rat Plasma (Aβ40; 0 h): 0.00% | Percent Decrease in Aβ 40 in Rat Plasma (Aβ40; 6 h): −18.13% | Percent Decrease in Aβ 40 in Rat Plasma (Aβ40; 12 h): −22.70% | Percent Decrease in Aβ 40 in Rat Plasma (Aβ40; 24 h): −13.22% | production of Aβ in retinal cells in the presence of the peptide (in words) (Aβ): reduced | delivery to the APPTg mouse brain (in words) [1]: in sufficient amounts to reduce Aß in the brain
